Measured values from publication PMC11705955, “Lack of activity of HIV-1 integrase strand-transfer inhibitors on recombinase activating gene (RAG) activity at clinically relevant concentrations” (Microbiology Spectrum, 2024).

Assays:
Expi293F cells = experiment: Cell viability (CellTiterGlo) in the cellular RAG assay; type: cell-based, human; conditions: 48 hours after transfection, up to 10 µM (p8 up to 50 µM)
Method: After 48-h incubation at 37°C in a humidified 8% CO2 incubator, 100 µL of cell suspension was transferred to 96-well black assay plates (Corning). Each well of the assay plates then received 100 µL CellTiterGlo reagent and the resulting luminescence signal was read using the PHERAstar FSX plate reader (BMG Labtech, Germany).
Supplemental Figure S4. Cytotoxicity analysis of INSTIs in the cellular RAG assay using […]
Concentration (μM) Concentration (μM) Concentration (μM)
Expi293F cells were co-t ransfected with pMAXgfp- INV plasmid substrate, mCherry- core RAG1 , mCherry RAG2, with INSTIs added 2 hours after transfection. Six different concentrations of each […]
added to separate wells. % live cells normalized to 0.1% DMSO data are presented for INSTIs tested in cell viability (Cell- Titer Glo) assay 48 hours after transfection. BIC (n=5), CAB (n=3), concentrations tested. An ordinary one-way ANOVA with Dunnett's multiple comparisons test unmarked datapoints = not significant. […]
was used to compare % GFP levels to the DMSO control, *P ≤ 0.05, **P ≤ 0.01, ***P ≤ 0.001, (also on this page, place not known: live normalized 0.001 % live cells normalized DMSO 0.001 10 % live cells normalized DMSO 0.001 10 % live cells normalized to DMSO 0.001 10 % live cells normalized to DMSO E xpi293F cells co-transfected pMAXgfp-INV mCherry-core RAG1, 5-fold 10 to % live cells normalized to DMSO (n=3) one -way to % to DMSO)

[1] = cited from earlier work; for Human clinical free Cmax: Cmax corrected for protein binding
[2] = clinical concentrations; cited from earlier work
RAG1/RAG2 = conditions: cited from earlier work; for Effect on RAG binding or cleavage at the RSS: EVG 50–200 μM, RAL up to 200 µM
immunological competence = test system: immunological competence; set-up: method as in PMID 22790968; conditions: TCR Vβ usage by flow cytometry and T cell-dependent antibody response; cited from earlier work
[3] = biological target: recombinant HIV-1 integrase; conditions: read-out: Target IC50 for integrase; cited from earlier work
RAG1 = conditions: biolayer interferometry; read-out: Dissociation constant from RAG1; cited from earlier work
T or B cells = conditions: cited from earlier work
murine RAG1/RAG2 = test system: murine RAG1/RAG2; set-up: method as in PMID 11756686; conditions: read-out: IC50 on RAG1/RAG2 in vitro; cited from earlier work

Row | SMILES | Cellular toxicity, % live cells normalized to 0.1% DMSO (Expi293F cells) | Human clinical free Cmax [1] [nM] | Free drug fraction [2] [%] | IC50 [3] [µM] | Effect on RAG binding or cleavage at the RSS (RAG1/RAG2) | other results
1 | C[C@@H]1CCO[C@H]2Cn3cc(C(=O)NCc4ccc(F)cc4F)c(=O)c(O)c3C(=O)N12 [DTG, dolutegravir] | minimal effects on cellular toxicity | 58 | 0.70 | – | – | Cmax ([1]; at clinical dosage of Table 1 (EVG with 150 mg cobicistat)): 8300 nM; Decrease of DNA binding and cleavage by RAG1 (RAG1/RAG2; DTG 200–500 μM): 50%–75%; Impact on immunological competence in juvenile rats (immunological competence): no impact on immunological competence
2 | C[C@H]1CO[C@@H]2Cn3cc(C(=O)NCc4ccc(F)cc4F)c(=O)c(O)c3C(=O)N12 [CAB, cabotegravir] | minimal effects on cellular toxicity | 25 | – | 0.003 | – | –
3 | COc1cc2c(cc1Cc1cccc(Cl)c1F)c(=O)c(C(=O)O)cn2[C@H](CO)C(C)C [EVG, elvitegravir] | minimal effects on cellular toxicity | 22 | 0.48 | – | inhibition of RAG cleavage at the RSS | Kd (RAG1): 32.5 µM; Effect on T or B cells in treated mice (T or B cells): did not show a large decrease in T or B cells
4 | Cc1nnc(C(=O)NC(C)(C)c2nc(C(=O)NCc3ccc(F)cc3)c(O)c(=O)n2C)o1 [RAL, raltegravir] | minimal effects on cellular toxicity | – | – | – | no effect on binding or cleavage | –
5 | O=C(/C=C(\O)c1nnn[nH]1)c1c[nH]c2ccc(Cl)cc12 [p8, 5-CITEP] | minimal effects on cellular toxicity | – | – | – | – | IC50 (murine RAG1/RAG2): 200 µM
6 | O=C(NCc1c(F)cc(F)cc1F)c1cn2c(c(O)c1=O)C(=O)N1[C@H]3CC[C@H](C3)O[C@@H]1C2 [BIC, bictegravir] | minimal effects on cellular toxicity | 34 | – | 0.0075 ± 0.0003 | – | –
